# Data from patent US9745360B2 (Sanofi, priority 2012, dated 2017).
# Where two headings read alike, the source gives them in different places. *1 amine or outer side, *2 acyl side, *3 side chain or, on linkers, in order; H or OH if unused. Where a SMILES comes first, the peptide text is derived from it. Side-chain parts run from the residue outwards. [ ]: non-standard residue; d: D form. The star is where a group is joined. γGlu = O=C(O)[C@H](CCC(=O)[*:2])N[*:1]; Stearoyl = CCCCCCCCCCCCCCCCCC(=O)*; Palmitoyl = CCCCCCCCCCCCCCCC(=O)*; d(αMeK) = C[C@@](N)(CCCCN)C(=O)O; αMeOrn = C[C@](N)(CCCN)C(=O)O; αMeK = C[C@](N)(CCCCN)C(=O)O; Api = NC1(C(=O)O)CCNCC1; Aib = CC(C)(N)C(=O)O
# How the values were obtained:
# [1] = target: T1, human GIP receptor (hGIP R) (Homo sapiens, UniProt P48546); experiment: cAMP response (HTRF) of HEK-293 cells stably expressing human GIP receptor; assay type: cell-based; conditions: Table 7; cAMP formation
# T1 construct: expressed in transfected cells
# T1 sequence (P48546 22-466): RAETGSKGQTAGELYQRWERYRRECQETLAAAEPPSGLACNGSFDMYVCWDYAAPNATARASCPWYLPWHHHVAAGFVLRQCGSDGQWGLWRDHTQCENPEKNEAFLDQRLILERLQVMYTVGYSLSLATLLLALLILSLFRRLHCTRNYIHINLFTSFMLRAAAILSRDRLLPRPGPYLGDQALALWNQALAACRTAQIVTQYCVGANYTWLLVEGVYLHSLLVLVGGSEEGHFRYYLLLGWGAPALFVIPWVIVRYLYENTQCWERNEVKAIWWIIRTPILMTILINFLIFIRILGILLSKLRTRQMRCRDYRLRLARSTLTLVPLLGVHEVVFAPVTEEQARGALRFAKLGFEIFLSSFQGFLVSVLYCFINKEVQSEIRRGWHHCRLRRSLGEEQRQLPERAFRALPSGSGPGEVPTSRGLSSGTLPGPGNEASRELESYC
# Experimental: (§1) cAMP content of cells was determined using a kit from Cisbio Corp. (cat. no. 62AM4PEC) based on HTRF (Homogenous Time Resolved Fluorescence). For preparation, cells were split into T175 culture flasks and grown overnight to near confluency in medium (DMEM/10% FBS). Medium was then removed and cells washed with PBS lacking calcium and magnesium, followed by proteinase treatment with accutase (Sigma-Aldrich cat. no. A6964). Detached cells were washed and resuspended in assay buffer (1×HBSS; 20 mM HEPES, 0.1% BSA, 2 mM IBMX) and cellular density determined. They were then diluted to 400000 cells/ml and 25 μl-aliquots dispensed into the wells of 96-well plates. For measurement, 25 μl of test compound in assay buffer was added to the wells, followed by incubation for 30 minutes at room temperature.
# [2] = Chemical stability in solution, 7 days at 25° C., % remaining peptide; assay type: physicochemical; conditions: % remaining peptide after 7 days at 25° C.
# Experimental: The chemical stability is expressed as “% remaining peptide”.
# (§2) Solubility and chemical stability of peptidic compounds were assessed as described in Methods.
# [3] = Solubility testing in buffer, HPLC-UV of supernatant; assay type: physicochemical; conditions: target concentration 1.0 mg/mL; for solubility at 2 h: buffer
# Experimental: as §2
# [4] = target: T2, human GLP-1 receptor (hGLP-1 R) (Homo sapiens, UniProt P43220); experiment: cAMP response (HTRF) of HEK-293 cells stably expressing human GLP-1 receptor; assay type: cell-based; conditions: Table 7; cAMP formation
# T2 construct: expressed in transfected cells
# T2 sequence (P43220 24-463): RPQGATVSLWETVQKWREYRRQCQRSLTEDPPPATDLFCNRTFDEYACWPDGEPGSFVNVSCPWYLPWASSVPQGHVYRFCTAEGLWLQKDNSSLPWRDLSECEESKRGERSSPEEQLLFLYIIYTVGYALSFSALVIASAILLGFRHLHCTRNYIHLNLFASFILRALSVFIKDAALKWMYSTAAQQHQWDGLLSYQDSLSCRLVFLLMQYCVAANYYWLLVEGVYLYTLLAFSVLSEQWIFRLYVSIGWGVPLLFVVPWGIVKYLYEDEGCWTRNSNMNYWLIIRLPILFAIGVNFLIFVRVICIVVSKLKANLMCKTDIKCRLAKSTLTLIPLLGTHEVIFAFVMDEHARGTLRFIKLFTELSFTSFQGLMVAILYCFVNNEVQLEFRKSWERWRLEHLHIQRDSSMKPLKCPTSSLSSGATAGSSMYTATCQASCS
# Experimental: as §1
# [5] = test system: non-fasted female diabetic dbdb-mice; experiment: Glucose lowering in non-fasted female diabetic dbdb-mice; assay type: in vivo; conditions: 3 μg/kg s.c., at 240 min, kept to 480 min, baseline 20-22 mmol/l
# Excerpt: Female diabetic dbdb-mice of mean non-fasted glucose value of 20-22 mmol/l and a body weight of 42 g+/−0.6 g (SEM) were used. Mice were individually marked and were adapted to housing conditions for at least one week.
# 3-5 days prior to study start mice were assigned to groups and cages (4 mice per cage, 8 per group, control group 16) according to their non-fasted glucose values to ensure even distribution of lower and higher values between groups (stratification). On the study day, mice were weighed and dosed (t=0). Immediately prior to compound administration feed was removed while water remained available, and a first blood sample at a tail incision was drawn (baseline). Further blood samples were drawn at the tail incision at 30, 60, 90, 120, 240, 360, and 480 min.
# Statistical analyses are performed with Everstat Version 6.0 based on SAS by 2-way-ANOVA on repeated measures, followed by Dunnett's post-hoc test against vehicle-control. Differences are considered statistically significant at the p<0.05 level.
# [6] = pH 4.5, read-out: Solubility (pH 4.5)
# [7] = pH 7.4, read-out: Solubility (pH 7.4)
smiles,measurement,setting,value
"CCCCCCCCCCCCCCCC(=O)N[C@@H](CCC(=O)NCCCC[C@H](NC(=O)[C@H](CCC(N)=O)NC(=O)[C@@H](NC(=O)[C@H](CO)NC(=O)[C@H](CC(C)C)NC(=O)[C@H](CC(=O)O)NC(=O)[C@H](CO)NC(=O)[C@@H](NC(=O)[C@H](Cc1ccccc1)NC(=O)[C@@H](NC(=O)CNC(=O)[C@H](CCC(=O)O)NC(=O)C(C)(C)NC(=O)[C@@H](N)Cc1ccc(O)cc1)[C@@H](C)O)[C@@H](C)O)[C@@H](C)CC)C(=O)N[C@@H](CCC(=O)O)C(=O)N[C@@H](CCC(=O)O)C(=O)N[C@@H](CCCNC(=N)N)C(=O)N[C@@H](C)C(=O)N[C@@H](C)C(=O)NC1(C(=O)N[C@@H](CCC(=O)O)C(=O)N[C@@H](Cc2ccccc2)C(=O)N[C@H](C(=O)N[C@@H](CCC(=O)O)C(=O)N[C@@H](Cc2c[nH]c3ccccc23)C(=O)N[C@@H](CC(C)C)C(=O)N[C@@H](CCCCN)C(=O)N[C@@H](CC(N)=O)C(=O)N[C@H](C(=O)NCC(=O)N2CCC[C@H]2C(=O)N[C@@H](CO)C(=O)N[C@@H](CO)C(=O)NCC(=O)N[C@@H](C)C(=O)N2CCC[C@H]2C(=O)N2CCC[C@H]2C(=O)N2CCC[C@H]2C(=O)N[C@@H](CO)C(N)=O)[C@@H](C)O)[C@@H](C)CC)CCNCC1)C(=O)O [SEQ ID NO: 8, Y-Aib-E-G-T-F-T-S-D-L-S-I-Q-K(γE-x53)-E-E-R-A-A-Pip-E-F-I-E-W-L-K-N-T-G-P-S-S-G-A-P-P-P-S-NH2] (H-Y[Aib]EGTFTSDLSIQK([γGlu-Palmitoyl])EERAA[Api]EFIEWLKNTGPSSGAPPPS-NH2)",EC50,[1],16.3 pM
same,Stability (pH 4.5),[2],93.0%
same,Stability (pH 7.4),[2],93.0%
same,solubility,[3]; [6],> 1000 µg/mL
same,solubility,[3]; [7],> 1000 µg/mL
"CCCCCCCCCCCCCCCC(=O)N[C@@H](CCC(=O)NCCCC[C@H](NC(=O)[C@H](CCC(N)=O)NC(=O)[C@@H](NC(=O)[C@H](CO)NC(=O)[C@H](CC(C)C)NC(=O)[C@H](CC(=O)O)NC(=O)[C@H](CO)NC(=O)[C@@H](NC(=O)[C@H](Cc1ccccc1)NC(=O)[C@@H](NC(=O)CNC(=O)[C@H](CCC(=O)O)NC(=O)C(C)(C)NC(=O)[C@@H](N)Cc1ccc(O)cc1)[C@@H](C)O)[C@@H](C)O)[C@@H](C)CC)C(=O)N[C@@H](CCC(=O)O)C(=O)N[C@@H](CCC(=O)O)C(=O)N[C@@H](CCCNC(=N)N)C(=O)N[C@@H](C)C(=O)N[C@@H](C)C(=O)N[C@@](C)(CCCN)C(=O)N[C@@H](CCC(=O)O)C(=O)N[C@@H](Cc1ccccc1)C(=O)N[C@H](C(=O)N[C@@H](CCC(=O)O)C(=O)N[C@@H](Cc1c[nH]c2ccccc12)C(=O)N[C@@H](CC(C)C)C(=O)N[C@@H](CCCCN)C(=O)N[C@@H](CC(N)=O)C(=O)N[C@H](C(=O)NCC(=O)N1CCC[C@H]1C(=O)N[C@@H](CO)C(=O)N[C@@H](CO)C(=O)NCC(=O)N[C@@H](C)C(=O)N1CCC[C@H]1C(=O)N1CCC[C@H]1C(=O)N1CCC[C@H]1C(=O)N[C@@H](CO)C(N)=O)[C@@H](C)O)[C@@H](C)CC)C(=O)O [SEQ ID NO: 10, Y-Aib-E-G-T-F-T-S-D-L-S-I-Q-K(γE-x53)-E-E-R-A-A-(S)MeOrn-E-F-I-E-W-L-K-N-T-G-P-S-S-G-A-P-P-P-S-NH2] (H-Y[Aib]EGTFTSDLSIQK([γGlu-Palmitoyl])EERAA[αMeOrn]EFIEWLKNTGPSSGAPPPS-NH2)",EC50,[1],7.1 pM
same,EC50,[4],4.9 pM
"CCCCCCCCCCCCCCCCCC(=O)N[C@@H](CCC(=O)NCCCC[C@H](NC(=O)[C@H](CCC(N)=O)NC(=O)[C@H](CCCCN)NC(=O)[C@H](CO)NC(=O)[C@H](CC(C)C)NC(=O)[C@H](CC(=O)O)NC(=O)[C@H](CO)NC(=O)[C@@H](NC(=O)[C@H](Cc1ccccc1)NC(=O)[C@@H](NC(=O)CNC(=O)[C@H](CCC(N)=O)NC(=O)C(C)(C)NC(=O)[C@@H](N)Cc1ccc(O)cc1)[C@@H](C)O)[C@@H](C)O)C(=O)N[C@@H](CC(=O)O)C(=O)N[C@@H](CCC(=O)O)C(=O)N[C@@H](CCC(N)=O)C(=O)N[C@@H](CCCNC(=N)N)C(=O)N[C@@H](C)C(=O)N[C@@](C)(CCCCN)C(=O)N[C@@H](CCC(=O)O)C(=O)N[C@@H](Cc1ccccc1)C(=O)N[C@H](C(=O)N[C@@H](CCC(=O)O)C(=O)N[C@@H](Cc1c[nH]c2ccccc12)C(=O)N[C@@H](CC(C)C)C(=O)N[C@@H](CCCCN)C(=O)N[C@@H](CO)C(=O)NCC(=O)NCC(=O)N1CCC[C@H]1C(=O)N[C@@H](CO)C(=O)N[C@@H](CO)C(=O)NCC(=O)N[C@@H](C)C(=O)N1CCC[C@H]1C(=O)N1CCC[C@H]1C(=O)N1CCC[C@H]1C(=O)N[C@@H](CO)C(N)=O)[C@@H](C)CC)C(=O)O [SEQ ID NO: 12, Y-Aib-Q-G-T-F-T-S-D-L-S-K-Q-K(γE-x70)-D-E-Q-R-A-(S)MeLys-E-F-I-E-W-L-K-S-G-G-P-S-S-G-A-P-P-P-S-NH2]","maximal effect, glucose reduction",[5],~11 mmol/L
same,Stability (pH 4.5),[2],98.0%
same,Stability (pH 7.4),[2],91.0%
same,solubility at 2 h,[3]; [6],> 1000 µg/mL
same,solubility at 2 h,[3]; [7],983 µg/mL
"CCCCCCCCCCCCCCCCCC(=O)N[C@@H](CCC(=O)NCCCC[C@H](NC(=O)[C@H](CCC(N)=O)NC(=O)[C@@H](NC(=O)[C@H](CO)NC(=O)[C@H](CC(C)C)NC(=O)[C@H](CC(=O)O)NC(=O)[C@H](CO)NC(=O)[C@@H](NC(=O)[C@H](Cc1ccccc1)NC(=O)[C@@H](NC(=O)CNC(=O)[C@H](CCC(N)=O)NC(=O)C(C)(C)NC(=O)[C@@H](N)Cc1ccc(O)cc1)[C@@H](C)O)[C@@H](C)O)[C@@H](C)CC)C(=O)N[C@@H](CC(=O)O)C(=O)N[C@@H](CCC(=O)O)C(=O)N[C@@H](CCC(N)=O)C(=O)N[C@@H](CCCNC(=N)N)C(=O)N[C@@H](C)C(=O)N[C@](C)(CCCCN)C(=O)N[C@@H](CCC(=O)O)C(=O)N[C@@H](Cc1ccccc1)C(=O)N[C@H](C(=O)N[C@@H](CCC(=O)O)C(=O)N[C@@H](Cc1c[nH]c2ccccc12)C(=O)N[C@@H](CC(C)C)C(=O)N[C@@H](CCCCN)C(=O)N[C@@H](CO)C(=O)NCC(=O)NCC(=O)N1CCC[C@H]1C(=O)N[C@@H](CO)C(=O)N[C@@H](CO)C(=O)NCC(=O)N[C@@H](C)C(=O)N1CCC[C@H]1C(=O)N1CCC[C@H]1C(=O)N1CCC[C@H]1C(=O)N[C@@H](CO)C(N)=O)[C@@H](C)CC)C(=O)O [SEQ ID NO: 13, Y-Aib-Q-G-T-F-T-S-D-L-S-I-Q-K(γE-x70)-D-E-Q-R-A-(R)MeLys-E-F-I-E-W-L-K-S-G-G-P-S-S-G-A-P-P-P-S-NH2] (H-Y[Aib]QGTFTSDLSIQK([γGlu-Stearoyl])DEQRA[d(αMeK)]EFIEWLKSGGPSSGAPPPS-NH2)",EC50,[4],13.6 pM
"CCCCCCCCCCCCCCCCCC(=O)N[C@@H](CCC(=O)NCCCC[C@H](NC(=O)[C@H](CCC(N)=O)NC(=O)[C@@H](NC(=O)[C@H](CO)NC(=O)[C@H](CC(C)C)NC(=O)[C@H](CC(=O)O)NC(=O)[C@H](CO)NC(=O)[C@@H](NC(=O)[C@H](Cc1ccccc1)NC(=O)[C@@H](NC(=O)CNC(=O)[C@H](CCC(=O)O)NC(=O)C(C)(C)NC(=O)[C@@H](N)Cc1ccc(O)cc1)[C@@H](C)O)[C@@H](C)O)[C@@H](C)CC)C(=O)N[C@@H](CC(=O)O)C(=O)N[C@@H](CCC(=O)O)C(=O)N[C@@H](CCCNC(=N)N)C(=O)N[C@@H](C)C(=O)N[C@@H](C)C(=O)N[C@@](C)(CCCCN)C(=O)N[C@@H](CCC(=O)O)C(=O)N[C@@H](Cc1ccccc1)C(=O)N[C@H](C(=O)N[C@@H](CCC(=O)O)C(=O)N[C@@H](Cc1c[nH]c2ccccc12)C(=O)N[C@@H](CC(C)C)C(=O)N[C@@H](CCCCN)C(=O)N[C@@H](CC(N)=O)C(=O)N[C@H](C(=O)NCC(=O)N1CCC[C@H]1C(=O)N[C@@H](CO)C(=O)N[C@@H](CO)C(=O)NCC(=O)N[C@@H](C)C(=O)N1CCC[C@H]1C(=O)N1CCC[C@H]1C(=O)N1CCC[C@H]1C(=O)N[C@@H](CO)C(N)=O)[C@@H](C)O)[C@@H](C)CC)C(=O)O [SEQ ID NO: 14, Y-Aib-E-G-T-F-T-S-D-L-S-I-Q-K(γE-x70)-D-E-R-A-A-(S)MeLys-E-F-I-E-W-L-K-N-T-G-P-S-S-G-A-P-P-P-S-NH2] (H-Y[Aib]EGTFTSDLSIQK([γGlu-Stearoyl])DERAA[αMeK]EFIEWLKNTGPSSGAPPPS-NH2)",EC50,[4],7.2 pM
